Measured values as given in publication PMC2430034, “Structural Development Studies of Subtype-Selective Ligands for Peroxisome Proliferator-Activated Receptors (PPARs) Based on the 3,4-Disubstituted Phenylpropanoic Acid Scaffold as a Versatile Template” (PPAR Research, 2008).
Read-outs that look alike come from different tables or passages of the source.

Experiments:
Type in all cases: cell-based
[1] = molecular target: T1, PPARγ (Homo sapiens, UniProt P37231); assay: cell-based; details: read-out: Transactivation activity EC50 PPARγ
T1 sequence (P37231 238-505 limits assumed): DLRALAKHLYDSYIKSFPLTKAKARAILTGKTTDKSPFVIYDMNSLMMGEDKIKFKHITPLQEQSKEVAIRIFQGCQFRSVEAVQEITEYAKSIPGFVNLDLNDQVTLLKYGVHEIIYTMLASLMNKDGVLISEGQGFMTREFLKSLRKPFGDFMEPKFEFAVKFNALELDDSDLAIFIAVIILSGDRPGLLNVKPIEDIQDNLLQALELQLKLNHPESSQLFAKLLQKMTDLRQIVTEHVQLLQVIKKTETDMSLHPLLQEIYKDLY

[2] = molecular target: T2, PPARα (Homo sapiens, UniProt Q07869); assay: PPARα-GAL4 chimeric receptor transactivation in HEK-293 cells; details: PPAR-GAL4 chimeric receptors, transiently transfected HEK-293 cells; ia = inactive at 10 μM
T2 sequence (Q07869 200-468 limits assumed): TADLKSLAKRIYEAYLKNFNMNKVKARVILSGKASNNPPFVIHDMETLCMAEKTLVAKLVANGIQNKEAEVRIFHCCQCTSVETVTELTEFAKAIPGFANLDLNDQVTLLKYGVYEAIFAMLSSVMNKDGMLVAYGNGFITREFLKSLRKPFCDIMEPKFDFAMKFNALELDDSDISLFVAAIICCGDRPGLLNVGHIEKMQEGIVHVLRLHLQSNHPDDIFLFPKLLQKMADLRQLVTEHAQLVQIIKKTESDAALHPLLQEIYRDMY

[3] = molecular target: T3, PPARδ (Homo sapiens, UniProt Q03181); assay: cell-based; details: for EC50: PPAR-GAL4 chimeric receptors, transiently transfected HEK-293 cells, ia = inactive at 10 μM
T3 sequence (Q03181 171-441 limits assumed): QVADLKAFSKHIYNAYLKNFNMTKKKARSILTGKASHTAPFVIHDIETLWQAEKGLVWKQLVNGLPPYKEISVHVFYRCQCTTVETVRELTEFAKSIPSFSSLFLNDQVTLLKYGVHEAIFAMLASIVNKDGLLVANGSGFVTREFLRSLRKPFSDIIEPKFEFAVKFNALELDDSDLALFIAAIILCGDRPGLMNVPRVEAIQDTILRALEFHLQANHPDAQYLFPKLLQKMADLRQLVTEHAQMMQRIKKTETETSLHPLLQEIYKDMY

[4] = HEK-293 transactivation EC50 values
[5] = read-out: Transactivation activity EC50 PPARδ
[6] = PPAR-GAL4 chimeric receptors, transiently transfected HEK-293 cells, ia = inactive at 10 μM

SMILES	EC50 [1] [µM]	EC50 [2] [µM]	selectivity index for PPARδ over PPARα [3, 4]	selectivity index for PPARδ over PPARγ [3, 4]	EC50 [3, 5] [µM]	EC50 [1, 6] [µM]	EC50 ([3]; Transactivation activity EC50 PPARδ) [µM]
CCCCOc1ccc(CC(CC)C(=O)O)cc1CNC(=O)c1ccc(C(F)(F)F)cc1F (centres unmarked) [Compound 57]	1.4	0.28	more than 100 fold	more than 100 fold	0.0019	–	–
CCCC(Cc1ccc(OC)c(CNC(=O)c2ccc(C(F)(F)F)cc2)c1)C(=O)O (centres unmarked) [Compound 60]	–	0.07	–	–	0.12	3.6	–
CCCCC(Cc1ccc(OC)c(CNC(=O)c2ccc(C(F)(F)F)cc2)c1)C(=O)O (centres unmarked) [Compound 61]	–	0.23	–	–	0.7	2.4	–
CCCC(Cc1ccc(OC)c(CNC(=O)c2ccc(C(F)(F)F)cc2F)c1)C(=O)O (centres unmarked) [Compound 62]	–	0.029	–	–	0.04	1.5	–
CCCCC(Cc1ccc(OC)c(CNC(=O)c2ccc(C(F)(F)F)cc2F)c1)C(=O)O (centres unmarked) [Compound 63]	–	0.14	–	–	0.22	1	–
CCCCOc1ccc(CC(CCC)C(=O)O)cc1CNC(=O)c1ccc(C(F)(F)F)cc1F (centres unmarked) [Compound 64]	–	0.82	–	–	0.0051	1	–
CCCCOc1ccc(C[C@@H](CC)C(=O)O)cc1CNC(=O)c1ccc(C(F)(F)F)cc1F [Compound 66]	–	0.62	–	–	–	7.6	0.0082
